Species: Rattus norvegicus
Experiment: Open TG-GATES - Regimen: Single
Type: toxicity, organism-based, Sprague-Dawley
Design: regimen Single, gender Male, age 6 weeks
Conditions: in vivo, po, 0 mg/kg, route gavage, dose level Control; for APTT / Bas / Eos / Fbg / Hb / Ht / Lym / MCH / MCHC / MCV / Mono / Neu / PT / Plat / RBC / Ret / WBC: tissue Blood; for KIDNEY_L / KIDNEY_R / KIDNEY_TOTAL: tissue Kidney; for LIVER: tissue Liver; for A/G / ALP / ALT / AST / BUN / CRE / Ca / Cl / DBIL / GLC / IP / K / LDH / Na / PL / RALB / TBIL / TC / TG / TP / gamma-GTP: tissue Plasma

SMILES: CC(=O)Nc1ccc2c(c1)Cc1ccccc1-2 [2-ACETYLAMINOFLUORENE]
- TERMINAL_BW (3 h): 224.8 g
- APTT (3 h): 20.9 s
- Bas (3 h): 0%
- Eos (3 h): 1%
- Fbg (3 h): 222.8 mg/dL
- Hb (3 h): 13.6 g/dL
- Ht (3 h): 39.5%
- Lym (3 h): 76.8%
- MCH (3 h): 21.5 pg
- MCHC (3 h): 34.5%
- MCV (3 h): 62.4 fL
- Mono (3 h): 2.4%
- Neu (3 h): 18.4%
- PT (3 h): 11.9 s
- Plat (3 h): 128.1 x10_4/uL
- RBC (3 h): 632.6 x10_4/ul
- Ret (3 h): 7.4%
- WBC (3 h): 87.7 x10_2/uL
- KIDNEY_L (3 h): 1 g
- KIDNEY_R (3 h): 1 g
- KIDNEY_TOTAL (3 h): 2 g
- LIVER (3 h): 10.3 g
- A/G (3 h): 1.7
- ALP (3 h): 1018.4 IU/L
- ALT (3 h): 36.6 IU/L
- AST (3 h): 77.4 IU/L
- BUN (3 h): 10.8 mg/dL
- CRE (3 h): 0.4 mg/dL
- Ca (3 h): 10.5 mg/dL
- Cl (3 h): 103.2 meq/L
- DBIL (3 h): 0.072 mg/dL
- GLC (3 h): 194.8 mg/dL
- IP (3 h): 9.7 mg/dL
- K (3 h): 4 meq/L
- LDH (3 h): 161.8 IU/L
- Na (3 h): 141 meq/L
- PL (3 h): 141.6 mg/dL
- RALB (3 h): 3.4 g/dL
- TBIL (3 h): 0.1 mg/dL
- TC (3 h): 77.8 mg/dL
- TG (3 h): 61.6 mg/dL
- TP (3 h): 5.5 g/dL
- gamma-GTP (3 h): 0.8 IU/L
- TERMINAL_BW (6 h): 219.6 g
- APTT (6 h): 20.9 s
- Bas (6 h): 0.6%
- Eos (6 h): 0.6%
- Fbg (6 h): 225.4 mg/dL
- Hb (6 h): 14.2 g/dL
- Ht (6 h): 40.9%
- Lym (6 h): 78.2%
- MCH (6 h): 21.8 pg
- MCHC (6 h): 34.6%
- MCV (6 h): 63.1 fL
- Mono (6 h): 2.8%
- Neu (6 h): 16.8%
- PT (6 h): 12.2 s
- Plat (6 h): 131.8 x10_4/uL
- RBC (6 h): 649.8 x10_4/ul
- Ret (6 h): 6.9%
- WBC (6 h): 108.9 x10_2/uL
- KIDNEY_L (6 h): 1 g
- KIDNEY_R (6 h): 1 g
- KIDNEY_TOTAL (6 h): 2 g
- LIVER (6 h): 9.3 g
- A/G (6 h): 1.7
- ALP (6 h): 956.2 IU/L
- ALT (6 h): 32.4 IU/L
- AST (6 h): 70.4 IU/L
- BUN (6 h): 9.6 mg/dL
- CRE (6 h): 0.4 mg/dL
- Ca (6 h): 10.5 mg/dL
- Cl (6 h): 101.4 meq/L
- DBIL (6 h): 0.076 mg/dL
- GLC (6 h): 196 mg/dL
- IP (6 h): 9.7 mg/dL
- K (6 h): 4.2 meq/L
- LDH (6 h): 166.6 IU/L
- Na (6 h): 140.4 meq/L
- PL (6 h): 139 mg/dL
- RALB (6 h): 3.4 g/dL
- TBIL (6 h): 0.1 mg/dL
- TC (6 h): 72.2 mg/dL
- TG (6 h): 89.8 mg/dL
- TP (6 h): 5.4 g/dL
- gamma-GTP (6 h): 1.2 IU/L
- TERMINAL_BW (9 h): 217 g
- APTT (9 h): 17.7 s
- Bas (9 h): 0.8%
- Eos (9 h): 0.8%
- Fbg (9 h): 241.4 mg/dL
- Hb (9 h): 13.9 g/dL
- Ht (9 h): 40.5%
- Lym (9 h): 75.2%
- MCH (9 h): 21.8 pg
- MCHC (9 h): 34.3%
- MCV (9 h): 63.4 fL
- Mono (9 h): 2.8%
- Neu (9 h): 19.4%
- PT (9 h): 12 s
- Plat (9 h): 124 x10_4/uL
- RBC (9 h): 639.4 x10_4/ul
- Ret (9 h): 6.7%
- WBC (9 h): 86.2 x10_2/uL
- KIDNEY_L (9 h): 1 g
- KIDNEY_R (9 h): 1 g
- KIDNEY_TOTAL (9 h): 1.9 g
- LIVER (9 h): 9.2 g
- A/G (9 h): 1.5
- ALP (9 h): 861.2 IU/L
- ALT (9 h): 32.4 IU/L
- AST (9 h): 67.8 IU/L
- BUN (9 h): 11.2 mg/dL
- CRE (9 h): 0.4 mg/dL
- Ca (9 h): 10.6 mg/dL
- Cl (9 h): 104 meq/L
- DBIL (9 h): 0.06 mg/dL
- GLC (9 h): 210.4 mg/dL
- IP (9 h): 9 mg/dL
- K (9 h): 3.7 meq/L
- LDH (9 h): 239.6 IU/L
- Na (9 h): 141 meq/L
- PL (9 h): 134.8 mg/dL
- RALB (9 h): 3.5 g/dL
- TBIL (9 h): 0.1 mg/dL
- TC (9 h): 73.6 mg/dL
- TG (9 h): 49.2 mg/dL
- TP (9 h): 5.7 g/dL
- gamma-GTP (9 h): 1 IU/L
- TERMINAL_BW (24 h): 237.9 g
- APTT (24 h): 20.8 s
- Bas (24 h): 0.2%
- Eos (24 h): 0.8%
- Fbg (24 h): 217.2 mg/dL
- Hb (24 h): 13.8 g/dL
- Ht (24 h): 40.1%
- Lym (24 h): 82%
- MCH (24 h): 22.5 pg
- MCHC (24 h): 34.3%
- MCV (24 h): 65.4 fL
- Mono (24 h): 3%
- Neu (24 h): 13.2%
- PT (24 h): 11.9 s
- Plat (24 h): 121.3 x10_4/uL
- RBC (24 h): 612 x10_4/ul
- Ret (24 h): 6.8%
- WBC (24 h): 101.1 x10_2/uL
- KIDNEY_L (24 h): 1.1 g
- KIDNEY_R (24 h): 1.1 g
- KIDNEY_TOTAL (24 h): 2.1 g
- LIVER (24 h): 11.4 g
- A/G (24 h): 1.7
- ALP (24 h): 1055.8 IU/L
- ALT (24 h): 40 IU/L
- AST (24 h): 69.4 IU/L
- BUN (24 h): 14.8 mg/dL
- CRE (24 h): 0.4 mg/dL
- Ca (24 h): 10.8 mg/dL
- Cl (24 h): 103.8 meq/L
- DBIL (24 h): 0.09 mg/dL
- GLC (24 h): 214.6 mg/dL
- IP (24 h): 8.3 mg/dL
- K (24 h): 3.9 meq/L
- LDH (24 h): 192.8 IU/L
- Na (24 h): 140.4 meq/L
- PL (24 h): 132.2 mg/dL
- RALB (24 h): 3.4 g/dL
- TBIL (24 h): 0.2 mg/dL
- TC (24 h): 64.2 mg/dL
- TG (24 h): 95.8 mg/dL
- TP (24 h): 5.4 g/dL
- gamma-GTP (24 h): 1.2 IU/L

From ChEMBL document CHEMBL3885861, “Open TG-GATES”
